Source: patent US20250043299A1, “POINT MUTATIONS THAT BOOST AROMATIC AMINO ACID PRODUCTION AND CO2 ASSIMILATION IN PLANTS” (Wisconsin Alumni Research Foundation, priority 2021, published 2025)
Several values for one entry are separate records, joined by “and”; a condition that tells them apart may be missing. Equal values may be shown once.

What was measured:
[1] = biological target: T1, Arabidopsis thaliana DHS2 (AtDHS2), wild type (DHS2^WT), SEQ ID NO:2 (Arabidopsis thaliana, UniProt Q00218); assay: DHS enzyme assay with effector, Arabidopsis DHS2 WT; assay type: biochemical; conditions: 4 mM E4P, 4 mM PEP, pH 7.4, 37° C.
T1 construct: without the predicted plastid transit peptide (amino acid residues; 49-525, 34-507, and 52-527, respectively); made in house; host or cells: E. coli Rosetta-2
Procedure: (§1) To generate DHS proteins with individual sota mutations via site-directed mutagenesis, these pET28a plasmid templates were diluted by 500-fold, mixed with 0.04 U/μL Phusion DNA polymerase (Thermo Scientific), 0.2 mM deoxynucleoside triphosphates (dNTPs), 1× Phusion reaction buffer (Thermo Scientific), and 0.5 μM forward and reverse mutagenesis primers (Table 10). The PCR reaction was run using the following protocol: 98° C. for 30 s followed by 20 cycles of 10 s at 98° C., 20 s at 70° C., 4.5 min at 72° C. with a final extension at 72° C. for 10 min. The PCR products were purified using a QIAquick Gel Extraction Kit (QIAGEN), treated with FastDigest DpnI (Thermo Scientific) to digest methylated plasmid template DNA for 20 min at 37° C., and transformed into E. coli cells. The mutagenized pET28a plasmids were sequenced to confirm that no errors were introduced during the mutagenesis process.
(§2) The DHS enzyme assays were conducted using the colorimetric method that we recently described (9). Briefly, the enzyme solution (7.7 μl) containing 50 mM Hepes (pH 7.4) was preincubated with an effector molecule(s) at room temperature for 15 min. For assays using recombinant protein and enzyme fractions isolated from plant leaves, 0.01 to 0.1 μg and approximately 50 μg of proteins were used, respectively. […]

DHS1^WT = biological target: T2, DHS1^WT (Arabidopsis thaliana, UniProt P29976); assay: DHS enzyme assay (colorimetric), recombinant DHS1^WT; assay type: biochemical; conditions: recombinant enzyme; read-out: IC50 of effector molecule on DHS1^WT
T2 construct: without the predicted plastid transit peptide (amino acid residues; 49-525, 34-507, and 52-527, respectively); made in house; host or cells: E. coli Rosetta-2
Procedure: as §1, with “To generate recombinant DHS proteins the pET28a vectors carrying the A. thaliana DHS1 (AtDHS1), AtDHS2, or AtDHS3 WT sequence without the predicted plastid transit peptide (amino acid residues; 49-525, 34-507, and 52-527, respectively) were expressed in E. coli Rosetta-2 cells and purified using Ni-affinity chromatography, exactly as was conducted previously (9). To” for “To”
The DHS enzyme assays were conducted using the colorimetric method that we recently described (9). Briefly, the enzyme solution (7.7 μl) containing 50 mM Hepes (pH 7.4) was preincubated with an effector molecule(s) at room temperature for 15 min. For assays using recombinant protein and enzyme fractions isolated from plant leaves, 0.01 to 0.1 μg and approximately 50 μg of proteins were used, respectively. After adding 0.5 μl of 0.1 M dithiothreitol, the samples were further incubated at room temperature for 15 min. During these incubations, the substrate solution containing 50 mM Hepes (pH 7.4), 2 mM MnCl2, 4 mM E4P, and 4 mM PEP at final concentration was preheated at 37° C. The enzyme reaction was started by adding 6.8 μl of the substrate solution, then incubated at 37° C. for 30 min, and terminated by adding 30 μl of 0.6 M trichloroacetic acid. After a brief centrifugation, 5 μl of 200 mM NaIO4 (sodium meta-periodate) in 9 N H3PO4 was added to oxidize the enzymatic product and to incubate at 25° C. for 20 min. To stop the oxidation reaction, 20 μl of 0.75 M NaAsO2 (sodium arsenite), which was dissolved in 0.5 M Na2SO4 and 0.05 M H2SO4, was added and immediately mixed. After 5 min of incubation at room temperature, one-third of the sample solution was transferred to a new tube to be mixed with 50 μl of 40 mM thiobarbituric acid and incubated at 99° C. for 15 min in a thermal cycler. The mixture was added to 600 μl of cyclohexanone in eight-strip solvent-resistant plastic tubes, mixed vigorously, and centrifuged at 4500 g for 3 min to separate water- and cyclohexanone-based layers for the extraction off the developed pink chromophore. The absorbance of the pink supernatant was read at 549 nm with the microplate reader (Infinite 200 PRO, TECAN) to calculate DAHP production with the molar extinction coefficient at 549 nm (ε=549 nm) of 4.5×10^4 M^−1 cm^−1. Reaction mixtures with boiled enzymes were run in parallel and used as negative controls to estimate the background signal.

DHS3^H1 = assay: DHS enzyme assay, recombinant DHS3^H1; assay type: biochemical, Arabidopsis thaliana
Procedure: as §1
The DHS enzyme assays were conducted using the colorimetric method that we recently described (9). Briefly, the enzyme solution (7.7 μl) containing 50 mM Hepes (pH 7.4) was preincubated with an effector molecule(s) at room temperature for 15 min. For assays using recombinant protein and enzyme fractions isolated from plant leaves, 0.01 to 0.1 μg and approximately 50 μg of proteins were used, respectively. After adding 0.5 μl of 0.1 M dithiothreitol, the samples were further incubated at room temperature for 15 min. During these incubations, the substrate solution containing 50 mM Hepes (pH 7.4), 2 mM MnCl2, 4 mM E4P, and 4 mM PEP at final concentration was preheated at 37° C. The enzyme reaction was started by adding 6.8 μl of the substrate solution, then incubated at 37° C. for 30 min, and terminated by adding 30 μl of 0.6 M trichloroacetic acid. After a brief centrifugation, 5 μl of 200 mM NaIO4 (sodium meta-periodate) in 9 N H3PO4 was added to oxidize the enzymatic product and to incubate at 25° C. for 20 min. To stop the oxidation reaction, 20 μl of 0.75 M NaAsO2 (sodium arsenite), which was dissolved in 0.5 M Na2SO4 and 0.05 M H2SO4, was added and immediately mixed. […]

DHS3^WT = assay: DHS enzyme assay, recombinant DHS3^WT; assay type: biochemical, Arabidopsis thaliana; conditions: read-out: IC50 of effector molecule on DHS3^WT
Procedure: as §1, §2

all DHS^WT isoforms = assay: DHS enzyme assay, summary over all DHS^WT isoforms; assay type: biochemical, Arabidopsis thaliana; conditions: for inhibition of all DHS^WT isoforms: FIG. 2D
Procedure: as §1, with “To generate recombinant DHS proteins the pET28a vectors carrying the A. thaliana DHS1 (AtDHS1), AtDHS2, or AtDHS3 WT sequence without the predicted plastid transit peptide (amino acid residues; 49-525, 34-507, and 52-527, respectively) were expressed in E. coli Rosetta-2 cells and purified using Ni-affinity chromatography, exactly as was conducted previously (9). To” for “To”
The DHS enzyme assays were conducted using the colorimetric method that we recently described (9). Briefly, the enzyme solution (7.7 μl) containing 50 mM Hepes (pH 7.4) was preincubated with an effector molecule(s) at room temperature for 15 min. For assays using recombinant protein and enzyme fractions isolated from plant leaves, 0.01 to 0.1 μg and approximately 50 μg of proteins were used, respectively. After adding 0.5 μl of 0.1 M dithiothreitol, the samples were further incubated at room temperature for 15 min. […] The absorbance of the pink supernatant was read at 549 nm with the microplate reader (Infinite 200 PRO, TECAN) to calculate DAHP production with the molar extinction coefficient at 549 nm (ε=549 nm) of 4.5×10^4 M^−1 cm^−1. […]

T1 sequence (Q00218 34-507): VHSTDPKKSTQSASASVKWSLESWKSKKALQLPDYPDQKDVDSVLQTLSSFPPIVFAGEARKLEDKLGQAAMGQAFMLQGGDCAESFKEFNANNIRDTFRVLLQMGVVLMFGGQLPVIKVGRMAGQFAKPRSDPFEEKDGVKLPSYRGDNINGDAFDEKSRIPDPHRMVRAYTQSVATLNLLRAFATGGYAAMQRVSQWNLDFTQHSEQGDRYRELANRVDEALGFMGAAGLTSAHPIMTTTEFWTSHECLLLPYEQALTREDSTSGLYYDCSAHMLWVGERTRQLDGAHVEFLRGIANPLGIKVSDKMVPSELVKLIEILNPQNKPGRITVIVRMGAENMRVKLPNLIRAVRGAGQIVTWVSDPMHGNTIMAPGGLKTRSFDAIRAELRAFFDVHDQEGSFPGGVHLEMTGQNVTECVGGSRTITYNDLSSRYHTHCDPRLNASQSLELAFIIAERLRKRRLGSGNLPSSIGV
T2 sequence (P29976 49-525): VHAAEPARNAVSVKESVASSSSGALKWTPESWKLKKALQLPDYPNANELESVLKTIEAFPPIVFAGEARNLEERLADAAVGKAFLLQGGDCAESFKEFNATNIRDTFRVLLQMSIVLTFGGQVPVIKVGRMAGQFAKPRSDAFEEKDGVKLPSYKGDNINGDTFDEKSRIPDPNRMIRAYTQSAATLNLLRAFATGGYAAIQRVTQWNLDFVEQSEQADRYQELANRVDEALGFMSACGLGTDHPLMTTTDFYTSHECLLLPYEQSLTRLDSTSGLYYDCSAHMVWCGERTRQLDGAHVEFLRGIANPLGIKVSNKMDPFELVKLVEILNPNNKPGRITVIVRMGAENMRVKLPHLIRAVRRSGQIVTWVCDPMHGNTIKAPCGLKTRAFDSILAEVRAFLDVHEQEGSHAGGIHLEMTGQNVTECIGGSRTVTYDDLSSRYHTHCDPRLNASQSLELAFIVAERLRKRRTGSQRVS

SMILES	IC50 [1]	IC50 (DHS1^WT)	IC50 of effector molecule on DHS3^H1 (DHS3^H1)	IC50 (DHS3^WT)	inhibition of all DHS^WT isoforms (all DHS^WT isoforms)	IC50 (all DHS^WT isoforms; range over the three isoforms)	IC50 (DHS3^H1; read-out: IC50 of effector molecule on DHS3^H1)
O=C(O)C(=O)Cc1c[nH]c2ccccc12 [IPA, indole-3-pyruvate]	58 µM and 58.3 µM	241 µM					
N[C@@H](Cc1c[nH]c2ccccc12)C(=O)O [Trp, tryptophan]			Not inhibited				
O=C(O)C(=O)Cc1ccc(O)cc1 [HPP, 4-Hydroxyphenylpyruvate]	48.4 µM			516 µM	effectively inhibited		
O=C(O)Cc1cc(O)ccc1O [HGA, homogentisate]		253 µM		102 µM	effectively inhibited	75 to 250 µM	405 µM
